ChEMBL document CHEMBL5465560, “Selectivity Literature for EUbOPEN Chemogenomic Library” (2024)

What was measured:
[1] = molecular target: T1, Serine/threonine-protein kinase 36 (Homo sapiens) (UniProt Q9NRP7); conditions: at 10 µM
T1 sequence (whole entry): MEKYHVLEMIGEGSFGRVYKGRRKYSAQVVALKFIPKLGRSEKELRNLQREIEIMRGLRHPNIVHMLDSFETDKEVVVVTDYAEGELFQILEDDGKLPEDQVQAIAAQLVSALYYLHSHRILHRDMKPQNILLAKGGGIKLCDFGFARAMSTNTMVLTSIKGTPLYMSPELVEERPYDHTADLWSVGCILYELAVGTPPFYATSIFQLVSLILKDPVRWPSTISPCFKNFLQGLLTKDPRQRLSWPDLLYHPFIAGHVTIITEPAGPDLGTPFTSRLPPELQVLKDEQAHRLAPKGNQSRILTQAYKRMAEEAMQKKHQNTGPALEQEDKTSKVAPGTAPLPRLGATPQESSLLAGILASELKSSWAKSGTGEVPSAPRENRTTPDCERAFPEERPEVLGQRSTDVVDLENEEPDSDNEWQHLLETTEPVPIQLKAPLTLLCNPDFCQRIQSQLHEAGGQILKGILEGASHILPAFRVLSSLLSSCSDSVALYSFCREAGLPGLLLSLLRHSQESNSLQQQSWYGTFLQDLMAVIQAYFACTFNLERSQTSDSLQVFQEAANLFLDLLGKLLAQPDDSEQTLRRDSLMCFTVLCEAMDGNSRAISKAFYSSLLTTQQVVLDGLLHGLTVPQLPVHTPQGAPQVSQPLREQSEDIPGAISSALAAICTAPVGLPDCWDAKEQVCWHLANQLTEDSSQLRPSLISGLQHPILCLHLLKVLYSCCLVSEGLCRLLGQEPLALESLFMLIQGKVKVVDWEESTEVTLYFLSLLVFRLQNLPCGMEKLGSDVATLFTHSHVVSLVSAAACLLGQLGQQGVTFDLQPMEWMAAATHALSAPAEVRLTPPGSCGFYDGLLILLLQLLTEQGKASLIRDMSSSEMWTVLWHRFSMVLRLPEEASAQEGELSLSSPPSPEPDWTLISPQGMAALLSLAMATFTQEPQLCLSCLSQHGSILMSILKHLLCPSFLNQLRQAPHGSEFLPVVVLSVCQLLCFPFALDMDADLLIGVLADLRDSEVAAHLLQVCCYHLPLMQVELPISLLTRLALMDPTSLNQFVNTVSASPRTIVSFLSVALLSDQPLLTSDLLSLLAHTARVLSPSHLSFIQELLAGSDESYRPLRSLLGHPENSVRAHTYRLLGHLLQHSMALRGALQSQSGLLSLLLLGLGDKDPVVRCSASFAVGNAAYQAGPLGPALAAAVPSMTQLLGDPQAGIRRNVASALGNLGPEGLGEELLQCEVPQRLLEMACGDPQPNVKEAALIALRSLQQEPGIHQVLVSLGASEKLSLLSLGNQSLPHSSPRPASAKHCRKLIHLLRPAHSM

[2] = molecular target: cAMP-dependent protein kinase catalytic subunit beta (Homo sapiens) (UniProt P22694); experiment: Selectivity interaction (KinomeScan (DiscoverX)) EUB0000666a PRKACB; conditions: at 10 µM
[3] = molecular target: DNA mismatch repair protein Msh6 (Homo sapiens) (UniProt P52701); experiment: Selectivity interaction (PWWP, WD40, and Tudor domain panel (DSLS measurements, literature)) EUB0000270b MSH6
Chain of DNA mismatch repair protein Msh6 (Homo sapiens) (P52701 whole entry, the tested form may be a part): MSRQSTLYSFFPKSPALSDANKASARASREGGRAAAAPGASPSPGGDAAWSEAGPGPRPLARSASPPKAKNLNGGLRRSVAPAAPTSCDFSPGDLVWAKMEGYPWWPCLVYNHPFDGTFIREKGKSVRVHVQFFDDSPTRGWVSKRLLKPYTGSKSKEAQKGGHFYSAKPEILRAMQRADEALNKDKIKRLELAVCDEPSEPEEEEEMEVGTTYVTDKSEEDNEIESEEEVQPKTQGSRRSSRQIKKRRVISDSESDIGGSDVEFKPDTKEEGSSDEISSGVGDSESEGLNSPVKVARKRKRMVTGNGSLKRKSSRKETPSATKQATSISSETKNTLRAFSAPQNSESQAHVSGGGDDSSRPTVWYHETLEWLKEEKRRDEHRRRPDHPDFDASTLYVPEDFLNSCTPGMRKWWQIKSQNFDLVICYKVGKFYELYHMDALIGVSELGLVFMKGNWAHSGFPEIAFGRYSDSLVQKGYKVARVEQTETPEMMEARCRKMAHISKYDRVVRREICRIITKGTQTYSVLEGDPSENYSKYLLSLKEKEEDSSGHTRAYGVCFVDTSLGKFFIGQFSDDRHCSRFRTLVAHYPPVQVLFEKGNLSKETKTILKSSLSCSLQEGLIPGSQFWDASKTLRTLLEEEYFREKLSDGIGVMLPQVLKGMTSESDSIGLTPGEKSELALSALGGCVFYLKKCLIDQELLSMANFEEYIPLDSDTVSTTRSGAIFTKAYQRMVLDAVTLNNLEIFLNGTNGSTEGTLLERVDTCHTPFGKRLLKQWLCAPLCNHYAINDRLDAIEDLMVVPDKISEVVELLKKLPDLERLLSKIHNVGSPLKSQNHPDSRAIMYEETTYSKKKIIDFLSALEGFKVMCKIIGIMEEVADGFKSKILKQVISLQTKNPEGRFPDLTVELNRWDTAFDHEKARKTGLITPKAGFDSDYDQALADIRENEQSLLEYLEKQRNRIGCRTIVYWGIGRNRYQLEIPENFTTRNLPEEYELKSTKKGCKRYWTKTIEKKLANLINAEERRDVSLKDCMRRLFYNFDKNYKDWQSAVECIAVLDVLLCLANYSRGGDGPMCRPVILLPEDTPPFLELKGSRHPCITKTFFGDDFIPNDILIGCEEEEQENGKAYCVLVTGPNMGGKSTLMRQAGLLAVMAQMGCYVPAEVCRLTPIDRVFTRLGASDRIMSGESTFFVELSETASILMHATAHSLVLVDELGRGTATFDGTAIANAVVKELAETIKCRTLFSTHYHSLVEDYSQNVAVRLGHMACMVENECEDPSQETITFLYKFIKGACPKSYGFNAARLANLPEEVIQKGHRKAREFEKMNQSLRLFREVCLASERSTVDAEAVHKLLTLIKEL

[4] = molecular target: Phosphatidylinositol 4-kinase type 2-beta (Homo sapiens) (UniProt Q8TCG2); experiment: Selectivity interaction (ActivX KiNativ screen (kinase selectivity in THP-1 cell lysates)) EUB0000639a PI4K2B; format: subcellular; conditions: lysate
Chain of Phosphatidylinositol 4-kinase type 2-beta (Homo sapiens) (Q8TCG2 whole entry): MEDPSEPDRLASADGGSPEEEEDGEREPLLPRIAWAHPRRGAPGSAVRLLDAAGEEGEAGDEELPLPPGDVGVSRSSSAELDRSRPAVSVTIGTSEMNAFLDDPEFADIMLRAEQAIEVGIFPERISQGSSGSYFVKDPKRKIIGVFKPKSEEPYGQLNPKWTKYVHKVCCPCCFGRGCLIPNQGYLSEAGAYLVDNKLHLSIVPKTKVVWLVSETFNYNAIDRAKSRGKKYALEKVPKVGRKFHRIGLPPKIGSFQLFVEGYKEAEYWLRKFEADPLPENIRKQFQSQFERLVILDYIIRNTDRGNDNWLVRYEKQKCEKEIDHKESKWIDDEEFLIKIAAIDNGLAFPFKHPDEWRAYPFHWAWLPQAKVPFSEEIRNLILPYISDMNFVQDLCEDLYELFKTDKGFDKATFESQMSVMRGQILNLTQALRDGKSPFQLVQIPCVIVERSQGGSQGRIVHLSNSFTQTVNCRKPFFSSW

[5] = molecular target: T2, Serine/threonine-protein kinase LATS1 (Homo sapiens) (UniProt O95835); experiment: Selectivity interaction (KinomeScan (DiscoverX)) EUB0000045b LATS1
T2 sequence (whole entry): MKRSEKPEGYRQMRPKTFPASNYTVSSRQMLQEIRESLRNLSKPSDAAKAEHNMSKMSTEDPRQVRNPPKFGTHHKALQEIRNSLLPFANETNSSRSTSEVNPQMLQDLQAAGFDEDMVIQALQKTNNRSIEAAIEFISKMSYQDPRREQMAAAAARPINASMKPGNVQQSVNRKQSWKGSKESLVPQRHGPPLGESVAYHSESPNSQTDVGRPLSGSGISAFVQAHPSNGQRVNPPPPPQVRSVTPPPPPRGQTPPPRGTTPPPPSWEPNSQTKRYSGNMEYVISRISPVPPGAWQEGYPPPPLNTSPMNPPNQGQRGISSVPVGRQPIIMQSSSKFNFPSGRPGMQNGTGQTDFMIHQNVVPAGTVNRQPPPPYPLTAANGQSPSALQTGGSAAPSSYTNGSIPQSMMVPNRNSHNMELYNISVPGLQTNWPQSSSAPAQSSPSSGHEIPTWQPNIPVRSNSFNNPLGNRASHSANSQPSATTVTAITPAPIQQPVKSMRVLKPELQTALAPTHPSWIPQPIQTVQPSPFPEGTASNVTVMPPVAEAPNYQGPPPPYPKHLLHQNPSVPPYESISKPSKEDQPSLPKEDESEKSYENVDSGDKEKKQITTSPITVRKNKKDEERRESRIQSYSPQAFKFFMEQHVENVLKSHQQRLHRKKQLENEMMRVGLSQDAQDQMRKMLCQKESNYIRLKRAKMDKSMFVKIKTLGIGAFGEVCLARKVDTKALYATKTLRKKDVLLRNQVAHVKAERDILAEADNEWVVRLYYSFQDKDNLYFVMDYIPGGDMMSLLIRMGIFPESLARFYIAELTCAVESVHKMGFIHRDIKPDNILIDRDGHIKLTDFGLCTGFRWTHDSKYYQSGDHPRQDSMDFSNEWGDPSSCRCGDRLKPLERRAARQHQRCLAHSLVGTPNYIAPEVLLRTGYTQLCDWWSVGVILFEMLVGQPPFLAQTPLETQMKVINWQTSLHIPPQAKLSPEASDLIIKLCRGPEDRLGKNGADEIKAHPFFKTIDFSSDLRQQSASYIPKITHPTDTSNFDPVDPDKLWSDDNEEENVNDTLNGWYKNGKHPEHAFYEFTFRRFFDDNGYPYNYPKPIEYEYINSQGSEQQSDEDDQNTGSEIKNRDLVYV

[6] = test system: Proto-oncogene tyrosine-protein kinase receptor Ret (Homo sapiens), P07949 [M918T]; experiment: Selectivity interaction (Ambit KINOMEscan and KiNATiv profiling in Jurkat cells) EUB0000090b RET; format: cell-based; conditions: at 1 µM
[7] = molecular target: Tyrosine-protein kinase FRK (Homo sapiens) (UniProt P42685); experiment: Selectivity interaction (Ambit KINOMEscan and KiNATiv profiling in Jurkat cells) EUB0000090b FRK; format: cell-based; conditions: at 1 µM
Chain of Tyrosine-protein kinase FRK (Homo sapiens) (P42685 whole entry): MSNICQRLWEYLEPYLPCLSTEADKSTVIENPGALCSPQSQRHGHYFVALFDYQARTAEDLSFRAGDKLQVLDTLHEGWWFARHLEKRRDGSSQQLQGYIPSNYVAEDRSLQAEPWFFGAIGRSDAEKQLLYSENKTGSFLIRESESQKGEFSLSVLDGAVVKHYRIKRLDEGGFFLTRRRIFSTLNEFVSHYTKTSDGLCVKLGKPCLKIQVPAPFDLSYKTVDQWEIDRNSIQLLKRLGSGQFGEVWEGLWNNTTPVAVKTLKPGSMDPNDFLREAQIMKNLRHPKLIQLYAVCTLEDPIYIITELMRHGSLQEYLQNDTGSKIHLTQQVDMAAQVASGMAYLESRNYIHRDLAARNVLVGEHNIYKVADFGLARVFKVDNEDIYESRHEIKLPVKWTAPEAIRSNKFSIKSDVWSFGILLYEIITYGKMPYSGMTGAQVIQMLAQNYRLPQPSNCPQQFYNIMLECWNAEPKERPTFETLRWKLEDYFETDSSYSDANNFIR

[8] = molecular target: Serine/threonine-protein kinase WNK1 (Homo sapiens) (UniProt Q9H4A3); experiment: Selectivity interaction (ActivX KiNativ screen (ex vivo kinase selectivity in human PBMCs)) EUB0001619a WNK1; format: cell-based; conditions: PBMC, at 1 µM
Chain of Serine/threonine-protein kinase WNK1 (Homo sapiens) (Q9H4A3 whole entry, looked up): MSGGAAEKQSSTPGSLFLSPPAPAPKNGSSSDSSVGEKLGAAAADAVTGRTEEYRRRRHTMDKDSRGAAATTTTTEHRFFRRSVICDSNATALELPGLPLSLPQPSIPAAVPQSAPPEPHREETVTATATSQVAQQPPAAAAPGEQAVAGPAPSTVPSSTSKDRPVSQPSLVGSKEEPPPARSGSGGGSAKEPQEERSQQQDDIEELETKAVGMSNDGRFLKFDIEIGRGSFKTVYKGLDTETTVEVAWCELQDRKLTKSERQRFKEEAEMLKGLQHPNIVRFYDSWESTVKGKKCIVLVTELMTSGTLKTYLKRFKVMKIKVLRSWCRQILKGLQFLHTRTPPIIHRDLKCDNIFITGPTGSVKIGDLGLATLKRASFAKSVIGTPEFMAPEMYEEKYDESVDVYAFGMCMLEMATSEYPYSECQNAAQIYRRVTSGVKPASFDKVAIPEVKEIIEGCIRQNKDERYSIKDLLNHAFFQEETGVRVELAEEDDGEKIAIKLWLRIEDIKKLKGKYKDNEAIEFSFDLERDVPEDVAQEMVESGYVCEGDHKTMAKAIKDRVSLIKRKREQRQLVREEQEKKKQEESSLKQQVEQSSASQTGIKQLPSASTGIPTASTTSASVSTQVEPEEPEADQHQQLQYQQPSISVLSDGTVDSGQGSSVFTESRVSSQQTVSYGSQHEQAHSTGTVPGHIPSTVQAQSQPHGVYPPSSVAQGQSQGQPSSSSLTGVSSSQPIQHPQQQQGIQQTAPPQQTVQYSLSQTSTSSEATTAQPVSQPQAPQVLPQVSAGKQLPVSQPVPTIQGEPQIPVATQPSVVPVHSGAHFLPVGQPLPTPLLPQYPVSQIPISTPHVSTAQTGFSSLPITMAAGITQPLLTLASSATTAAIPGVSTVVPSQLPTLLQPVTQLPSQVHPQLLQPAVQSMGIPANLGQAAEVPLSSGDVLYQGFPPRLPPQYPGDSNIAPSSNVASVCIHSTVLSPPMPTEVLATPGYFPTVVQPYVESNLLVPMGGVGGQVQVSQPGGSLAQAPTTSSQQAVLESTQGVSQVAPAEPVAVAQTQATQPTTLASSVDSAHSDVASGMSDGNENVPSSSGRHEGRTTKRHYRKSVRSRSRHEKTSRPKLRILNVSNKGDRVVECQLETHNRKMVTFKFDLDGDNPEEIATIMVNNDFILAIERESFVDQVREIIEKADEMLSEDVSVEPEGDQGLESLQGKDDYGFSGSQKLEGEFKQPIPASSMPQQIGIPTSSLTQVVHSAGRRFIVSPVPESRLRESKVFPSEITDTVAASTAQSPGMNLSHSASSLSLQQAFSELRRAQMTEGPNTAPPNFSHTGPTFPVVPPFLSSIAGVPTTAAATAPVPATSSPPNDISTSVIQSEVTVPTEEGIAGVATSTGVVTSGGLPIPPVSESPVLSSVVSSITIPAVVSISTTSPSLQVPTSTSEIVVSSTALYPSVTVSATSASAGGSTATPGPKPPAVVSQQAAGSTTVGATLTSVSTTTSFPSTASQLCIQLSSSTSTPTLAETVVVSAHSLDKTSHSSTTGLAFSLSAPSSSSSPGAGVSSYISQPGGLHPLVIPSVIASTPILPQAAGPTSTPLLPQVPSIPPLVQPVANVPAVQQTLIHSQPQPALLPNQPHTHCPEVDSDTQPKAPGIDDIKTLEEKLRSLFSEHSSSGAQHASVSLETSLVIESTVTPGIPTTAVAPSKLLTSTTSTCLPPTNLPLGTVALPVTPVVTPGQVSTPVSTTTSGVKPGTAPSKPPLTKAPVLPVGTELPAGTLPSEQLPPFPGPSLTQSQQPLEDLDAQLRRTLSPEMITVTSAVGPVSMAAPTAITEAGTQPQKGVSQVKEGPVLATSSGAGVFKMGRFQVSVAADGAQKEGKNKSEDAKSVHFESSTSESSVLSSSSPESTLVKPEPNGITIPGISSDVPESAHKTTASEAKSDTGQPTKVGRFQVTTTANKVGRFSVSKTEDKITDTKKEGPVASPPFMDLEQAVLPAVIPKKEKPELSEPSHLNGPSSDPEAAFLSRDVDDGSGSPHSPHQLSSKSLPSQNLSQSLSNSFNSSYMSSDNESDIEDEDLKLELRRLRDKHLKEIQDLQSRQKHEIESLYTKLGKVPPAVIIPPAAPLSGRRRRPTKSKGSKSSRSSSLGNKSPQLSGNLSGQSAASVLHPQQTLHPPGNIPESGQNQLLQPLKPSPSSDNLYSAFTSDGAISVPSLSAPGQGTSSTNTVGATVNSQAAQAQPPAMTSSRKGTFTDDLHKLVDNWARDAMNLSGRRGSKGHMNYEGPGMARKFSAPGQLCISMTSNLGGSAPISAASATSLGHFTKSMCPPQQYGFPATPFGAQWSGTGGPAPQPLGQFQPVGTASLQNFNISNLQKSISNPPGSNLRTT

How did the % of control [1] turn out when `CCN(CC)CCCCNc1ncc2cc(-c3cc(OC)cc(OC)c3)c(NC(=O)NC(C)(C)C)nc2n1` was run?
The % of control was 100%.

`O=C(NOC[C@H](O)CO)c1ccc(F)c(F)c1Nc1ccc(I)cc1F` was tested. Which % of control [2] did it give?
The % of control was 98%.

For `Cc1cc(CN)cc(C)c1-c1ncn(C)c1-c1cncn1C`, which dTagg [3] is on record?
The dTagg was -0.2 K.

`CC[C@@H]1[C@H](F)C(=O)N[C@@H]1COc1nccc2cc(C(N)=O)c(OC)cc12` [ZIMLOVISERTIB] was tested. Which % of inhibition ([4]; at 0.01 µM) did it give?
Its % of inhibition is 13.9%.

And the % of inhibition ([4]; at 0.04 µM)?
The % of inhibition was -2.8%.

What about the % of inhibition ([4]; at 0.2 µM) of the same compound?
Its % of inhibition is -47.4%.

And the % of inhibition ([4]; at 1 µM)?
Its % of inhibition is -23.2%.

What about the % of inhibition ([4]; at 5 µM) of the same compound?
The % of inhibition was -24%.

`C=CC(=O)Nc1cc(-n2c(=O)ccc3cnc4ccc(-c5ccc(NS(C)(=O)=O)cc5)cc4c32)ccc1C` was tested. Which % of control ([5]; at 1 µM) did it give?
The % of control was 100%.

What about the % of control ([5]; at 10 µM) of the same compound?
Its % of control is 100%.

`CN(C)C/C=C/C(=O)Nc1ccc(C(=O)N2CCCC(Nc3ncc(Cl)c(-c4c[nH]c5ccccc45)n3)C2)cc1` (stereo not drawn) was tested. Which % of control [6] did it give?
Its % of control is 68%.

What about the % of control [7] of the same compound?
Its % of control is 89%.

How did the % of inhibition [8] turn out when `N#Cc1cccc(-c2c[nH]c3ncnc(N4CCOCC4)c23)c1` was run?
Its % of inhibition is -1%.
